According to US20030228607A1, “Screening method and modulators having an improved therapeutic profile” (priority 2002, published 2003):

Assays:
ABCA1 [1] = assay: ABCA1 mRNA in tissues of mice dosed by oral gavage; type: in vivo, mouse; conditions: 10 mg/kg daily for 7 days, intestinal mucosa, liver, quadriceps, LXR dependent
Experimental: (§1) FIG. 5. LXR mediated repression of ABCA1 is tissue specific. To measure the LXR dependent regulation of ABCA1 in different tissues wild type and LXRαβ−/− mice were dosed with 10 mg/kg T0901317 for 7 days by oral gavage. After 7 days the animals were sacrificed and intestinal mucosa, quadriceps, and livers were harvested. Mouse embryonic fibroblasts (MEFs) were isolated from embryos harvested at embryonic day 14. MEFs were plated in DMEM+10% FBS and treated with either vehicle or 1 μM T0901317 for 18 hrs. RNA was isolated and RT-PCR was used to quantitate the levels of ABCA1 and cyclophilin in FIG. 5A, intestinal mucosa, FIG. 5B, liver, FIG. 5C, MEFs and FIG. 5D, quadricep. […] RNA isolation and analysis of gene expression by quantitative RT-PCR. […] Quantitative PCR of reverse transcriptase reactions was carried out with 1.25 units Taq polymerase (Life Technologies), 1× Taq buffer, 3 mM MgCl2, 200 uM dNTPs, 400 nM target specific forward and reverse primers and 100 nM target specific fluorogenic probe. […] Levels of cyclophilin were measured in all in vivo samples and the results are presented as number of target transcripts per cyclophilin transcript. […] ABCA1 levels were also measured in isolated mouse embryonic fibroblasts treated with T091317 in culture. LXR agonist treatment increases expression of ABCA1 mRNA in all of the tissues analyzed, in an LXR dependent manner. […]

[2] = molecular target: T1, human LXRβ ligand binding domain with co-repressors NCoR and SMRT (Homo sapiens, UniProt P55055, DUP175-175); assay: GAL4 two-hybrid co-repressor interaction in CV-1 cells, LXRβ; type: cell-based; conditions: 1 μM overnight, luciferase normalized to β-gal
T1 construct: expressed in transfected cells; host or cells: CV-1 cells
T1 sequence (P55055 with tags, fused parts or gaps DUP175-175): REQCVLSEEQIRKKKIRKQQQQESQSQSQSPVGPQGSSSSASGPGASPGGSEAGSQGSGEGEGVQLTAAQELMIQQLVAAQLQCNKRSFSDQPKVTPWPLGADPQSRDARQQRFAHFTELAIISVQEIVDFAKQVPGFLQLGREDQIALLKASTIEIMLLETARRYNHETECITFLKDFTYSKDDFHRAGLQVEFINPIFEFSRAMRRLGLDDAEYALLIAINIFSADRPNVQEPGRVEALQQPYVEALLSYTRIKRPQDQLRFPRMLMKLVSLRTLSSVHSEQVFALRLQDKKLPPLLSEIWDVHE
Experimental: (§2) FIG. 6. […] Two-hybrid analysis was performed by transiently transfecting CV-1 cells with a Gal4-luciferase reporter, Gal4-fusions of the receptor interacting domains of NcoR and SMRT, VP16 fusion of the ligand binding domains of LXRα and LXRβ and a β-gal expression vector. Cells were transfected with FUGENE transfection reagent and incubated with vehicle or 1 μM T0901317 overnight. The cells were then lysed and analyzed for β-gal and luciferase activity. The data is presented as luciferase activity normalized to β-gal activity.
(§3) GAL4 two-hybrid experiments. CV-1 cells were transfected using FuGene6 (Roche Applied Science, Indianapolis, Ind.) per manufacturer's instructions in 96 well plates with a total of 65 ng of DNA per well, consisting of 20 ng β-gal reporter, 15 ng GAL4-UAS4xRE (SEQ. ID. No. 28), 15 ng VP16-LXR-LBD, and 15 ng GAL4-human silencing mediator of retinoid and thyroid transcription (SMRT) receptor interacting domain 1 and 2 (ID1+ID2) or human nuclear receptor corepressor 1 (NCoR) ID1+ID2.

[3] = molecular target: T2, human LXRα ligand binding domain with co-repressors NCoR and SMRT (Homo sapiens, UniProt Q13133); assay: GAL4 two-hybrid co-repressor interaction in CV-1 cells, LXRα; type: cell-based; conditions: 1 μM overnight, luciferase normalized to β-gal
T2 construct: expressed in transfected cells; host or cells: CV-1 cells
T2 sequence (Q13133 164-447): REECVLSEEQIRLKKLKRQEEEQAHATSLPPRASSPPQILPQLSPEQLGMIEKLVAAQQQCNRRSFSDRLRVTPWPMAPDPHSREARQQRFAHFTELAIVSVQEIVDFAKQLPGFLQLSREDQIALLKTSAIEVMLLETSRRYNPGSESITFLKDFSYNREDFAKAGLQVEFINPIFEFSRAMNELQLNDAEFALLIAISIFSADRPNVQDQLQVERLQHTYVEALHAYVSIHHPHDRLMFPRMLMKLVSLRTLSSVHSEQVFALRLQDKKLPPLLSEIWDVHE
Experimental: as §2, §3

ABCA1 [4] = assay: ABCA1 mRNA in mouse embryonic fibroblasts in culture; type: cell-based; conditions: MEFs in culture, 1 μM, 18 hrs; LXR dependent
Experimental: as §1

ABCA1 [5] = assay: ABCA1 mRNA (RT-PCR) and protein (western blot) in peritoneal macrophage; type: cell-based, mouse; conditions: 1 μM, 18 hrs
Excerpt: FIG. 2. LXR dependent activation and repression of ABCA1. Thyoglycolate induced peritoneal macrophage were isolated from wild type and LXRαβ knockout mice. […] FIG. 2A. Following induction mRNA was isolated and RT-PCR was used to quantitate the levels of ABCA1 and the cyclophilin. ABCA1 levels were normalized to cyclophilin levels and the results are presented as fold induction above wild type macrophage treated with vehicle. FIG. 2B. For western blot analysis, whole cells extracts were isolated, run on an SDS-PAGE and probed with an antibody specific for ABCA1. RNA isolation and analysis of gene expression by quantitative RT-PCR. Total RNA from mouse tissues and cells was isolated using RNeasy kits (QIAGEN Inc.) according to the supplier's total RNA isolation procedure. Real time PCR was performed using a Perkin-Elmer/ABI 7700 Prism. […] Quantitative PCR of reverse transcriptase reactions was carried out with 1.25 units Taq polymerase (Life Technologies), 1× Taq buffer, 3 mM MgCl2, 200 uM dNTPs, 400 nM target specific forward and reverse primers and 100 nM target specific fluorogenic probe. […] Levels of cyclophilin were measured in all in vivo samples and the results are presented as number of target transcripts per cyclophilin transcript. […] RT-PCR was used to quantitate the levels of ABCA1 and the cyclophilin following induction of mRNA. […]

[6] = molecular target: T3, GAL4-human silencing mediator of retinoid and thyroid transcription (SMRT) receptor interacting domain 1 and … (yeast; human); assay: mammalian GAL4/VP16 two-hybrid, CV-1 cells, luciferase reporter
T3 construct: also called GAL4-SMRT ID1+ID2
T3 chain: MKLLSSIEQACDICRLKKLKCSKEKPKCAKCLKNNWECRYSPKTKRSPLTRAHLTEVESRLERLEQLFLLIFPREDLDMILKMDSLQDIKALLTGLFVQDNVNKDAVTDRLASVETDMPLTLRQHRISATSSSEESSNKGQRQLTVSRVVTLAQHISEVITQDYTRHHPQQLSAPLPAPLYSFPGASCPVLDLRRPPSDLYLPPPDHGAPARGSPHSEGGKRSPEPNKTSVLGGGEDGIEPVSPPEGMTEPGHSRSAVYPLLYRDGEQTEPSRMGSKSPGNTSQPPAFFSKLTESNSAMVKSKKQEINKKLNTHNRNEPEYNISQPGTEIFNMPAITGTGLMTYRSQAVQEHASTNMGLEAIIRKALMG

Molecule: O=S(=O)(c1ccccc1)N(CC(F)(F)F)c1ccc(C(O)(C(F)(F)F)C(F)(F)F)cc1 [T0901317, N-(2,2,2,-trifluoro-ethyl)-N-[4-(2,2,2-trifluoro-1-hydroxy-1-trifluoromethyl-ethyl)-phenyl]-benzenesulfonamide]
- expression of ABCA1 mRNA in tissues (ABCA1 [1]): increases
- interaction of LXRβ with co-repressors NCoR and SMRT [2]: inhibited
- interaction of LXRα with co-repressors NCoR and SMRT [3]: inhibited
- expression of ABCA1 mRNA in mouse embryonic fibroblasts (ABCA1 [4]): increases
- ABCA1 mRNA levels (ABCA1 [5]; RT-PCR normalized to cyclophilin, LXR dependent (wild type vs LXRαβ-/-)): increases
- ABCA1 protein levels (ABCA1 [5]; western blot, LXR dependent): increases

B1: VP16-LXR-LBD (VP16 activation domain fused to the ligand binding domain of human LXRα, amino acids 164-447) (receptor)
chain: SRGRTRNNYGSTIEGLLDLPDDDDAPAEAGLVAPRMSFLSAGQRPRRLSTTAPITDVSLVDELRLDGEEVDMTPADALDDFDLEMLGDVESPSPGMTHDPVSYGALDVDDFEFEQMFTDALGIDDFGGREECVLSEEQIRLKKLKRQEEEQAHATSLPPRRSSPPQILPQLSPEQLGMIEKLVAAQQQCNRRSFSDRLRVTPWPMAPDPHSREARQQRFAHFTELAIVSVQEIVDFAKQLPGFLQLSREDQIALLKTSAIEVMLLETSRRYNPGSESITFLKDFSYNREDFAKAGLQVEFINPIFEFSRAMNELQLNDAEFALLIAISIFSADRPNVQDQLQVERLQHTYVEALHAYVSIHHPHDRLMFPRMLMKLVSLRTLSSVHSEQVFALRLQDKKLPPLLSEIWDVHE
notes: also called VP16 fusion of LXRα; VP16-LXRα-LBD
- binding result [6]: binds

B2: VP16-LXR-LBD (VP16 activation domain fused to the ligand binding domain of human LXRβ, amino acids 155-461) (receptor)
chain: SRGRTRNNYGSTIEGLLDLPDDDDAPAEAGLVAPRMSFLSAGQRPRRLSTTAPITDVSLVDELRLDGEEVDMTPADALDDFDLEMLGDVESPSPGMTHDPVSYGALDVDDFEFEQMFTDALGIDDFGGREQCVLSEEQIRKKKIRKQQQESQSQSQSPVGPQGSSSSASGPGASPGGSEAGSQGSGEGEGVQLTAAQELMIQQLVAAQLQCNKRSFSDQPKVTPWPLGADPQSRDARQQRFAHFTELAIISVQEIVDFAKQVPGFLQLGREDQIALLKASTIEIMLLETARRYNHETECITFLKDFTYSKDDFHRAGLQVEFINPIFEFSRAMRRLGLDDAEYALLIAINIFSADRPNVQEPGRVEALQQPYVEALLSYTRIKRPQDQLRFPRMLMKLVSLRTLSSVHSEQVFALRLQDKKLPPLLSEIWDVHE
notes: also called VP16 fusion of LXRβ; VP16-LXRβ-LBD
- binding result [6]: binds
